The record followed here is patent US20220160814A1, “COMPOSITIONS AND METHODS FOR PROTECTING TYPE 2 ALVEOLAR EPITHELIAL CELLS (AEC2)” (Lung Therapeutics, Inc., priority 2019, published 2022).

Where no end group is shown, it is not given here.

For this data set, the system named is IPF fibroblasts. It counts as cell-based. On the procedure: FIGS. 1A-B. CSP7 deactivates IPF lung fibroblasts. IPF fibroblasts were treated with control peptide, TGFβ (a positive control to stimulate collagen), or a single dose of CSP7 and assayed 24 h later using ELISA against human collagen 1α1 (FIG. 1A). A cell titer glo assay was used to label live IPF fibroblasts grown on 96 well plates (FIG. 1B).
A cell titer glo assay (Promega, G7570) was used to label live IPF fibroblasts grown on 96 well plates. IPF fibroblasts have a senescent phenotype, and as such they release factors that contribute to aberrant wound healing. Inducing apoptosis in IPF fibroblasts may […]. Luminescence was read in a plate reader. […] Luminescence is proportional to living cell number, i.e., a decrease in luminescence correlates with cell death.

FTTFTVT [CSP7, FTTFTVT]: the “apoptosis / live cell number (luminescence)” value is “did not stimulate apoptosis”.
